Test results reported in ChEMBL document CHEMBL1201862, “PubChem BioAssay data set” (2004).
Active and inactive are the calls of the source.

Experiments:
[1] = target: T1, Rac GTPase-activating protein 1 (Homo sapiens, UniProt Q9H0H5); assay: blockers of MgcRacGAP-driven Rac1 GTP hydrolysis – biochemical, ADP Hunter fluorescence, primary and confirmatory, confirmation (AID 624330); type: functional
T1 sequence (Q9H0H5 whole entry): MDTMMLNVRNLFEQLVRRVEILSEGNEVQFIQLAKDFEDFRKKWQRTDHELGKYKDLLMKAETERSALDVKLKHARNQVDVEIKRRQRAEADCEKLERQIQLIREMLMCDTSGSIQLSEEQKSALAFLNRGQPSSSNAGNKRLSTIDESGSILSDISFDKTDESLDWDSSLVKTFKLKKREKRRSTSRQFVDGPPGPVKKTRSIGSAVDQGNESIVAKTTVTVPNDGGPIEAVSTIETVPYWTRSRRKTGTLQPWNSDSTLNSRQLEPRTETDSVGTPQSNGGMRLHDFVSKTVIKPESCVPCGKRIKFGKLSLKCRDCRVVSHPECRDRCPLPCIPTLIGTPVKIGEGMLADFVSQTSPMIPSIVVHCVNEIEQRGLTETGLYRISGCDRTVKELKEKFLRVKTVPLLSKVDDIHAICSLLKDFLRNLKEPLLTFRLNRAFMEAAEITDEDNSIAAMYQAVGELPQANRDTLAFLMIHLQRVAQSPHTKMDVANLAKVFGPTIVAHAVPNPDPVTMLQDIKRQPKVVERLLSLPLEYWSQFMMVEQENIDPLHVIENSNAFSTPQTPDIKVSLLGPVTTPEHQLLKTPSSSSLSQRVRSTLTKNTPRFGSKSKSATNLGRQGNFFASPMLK

[2] = target: T2, Corticotropin-releasing factor receptor 2/Corticotropin-releasing factor-binding protein (Homo sapiens, UniProt P24387+Q13324); assay: activators of CRF receptor 2 with binding protein – uHTS hits, confirmation (AID 602473); type: functional; details: read-out: EC50_Mean
T2 sequence (Q13324 whole entry): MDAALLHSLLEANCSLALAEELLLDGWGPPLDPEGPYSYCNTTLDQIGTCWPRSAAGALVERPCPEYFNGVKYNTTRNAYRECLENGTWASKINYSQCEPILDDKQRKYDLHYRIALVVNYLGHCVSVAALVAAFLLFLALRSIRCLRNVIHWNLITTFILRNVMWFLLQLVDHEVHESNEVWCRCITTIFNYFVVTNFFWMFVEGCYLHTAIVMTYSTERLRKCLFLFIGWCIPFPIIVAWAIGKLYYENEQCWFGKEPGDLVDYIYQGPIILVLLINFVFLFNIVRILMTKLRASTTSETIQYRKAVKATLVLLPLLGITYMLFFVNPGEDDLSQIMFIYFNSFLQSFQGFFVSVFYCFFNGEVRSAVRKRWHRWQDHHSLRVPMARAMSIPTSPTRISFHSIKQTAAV
T2 sequence (P24387 whole entry): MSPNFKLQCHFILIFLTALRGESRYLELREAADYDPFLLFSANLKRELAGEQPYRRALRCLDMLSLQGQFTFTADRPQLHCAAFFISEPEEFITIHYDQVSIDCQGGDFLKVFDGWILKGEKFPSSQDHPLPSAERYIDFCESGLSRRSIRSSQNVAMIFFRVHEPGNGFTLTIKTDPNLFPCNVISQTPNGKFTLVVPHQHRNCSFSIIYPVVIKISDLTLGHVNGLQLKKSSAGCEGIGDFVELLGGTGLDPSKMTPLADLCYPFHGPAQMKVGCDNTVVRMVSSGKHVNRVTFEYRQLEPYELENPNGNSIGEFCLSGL

[3] = target: T2, Corticotropin-releasing factor receptor 2/Corticotropin-releasing factor-binding protein; assay: Dose Response confirmation of uHTS hits for small molecule antagonists of the CRF-binding protein and CRF-R2 receptor complex.; type: functional; details: read-out: IC50_Mean
[4] = target: T3, Ubiquitin-conjugating enzyme E2 N (Homo sapiens, UniProt P61088); type: functional;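 note: Dose-response confirmation in a TR-FRET assay detecting UBC13-driven polyubiquitin chain formation, inhibition measured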
T3 sequence (P61088 whole entry): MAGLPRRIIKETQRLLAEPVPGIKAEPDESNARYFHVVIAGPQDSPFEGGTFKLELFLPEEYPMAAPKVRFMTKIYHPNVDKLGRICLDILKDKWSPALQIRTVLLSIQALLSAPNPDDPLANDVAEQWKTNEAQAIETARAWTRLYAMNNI

[5] = target: Nonstructural protein 1 (Influenza A virus, UniProt Q194T2); type: functional, Influenza A virus (A/California/07/2009(H1N1))
Chain of Nonstructural protein 1 (Q194T2 whole entry): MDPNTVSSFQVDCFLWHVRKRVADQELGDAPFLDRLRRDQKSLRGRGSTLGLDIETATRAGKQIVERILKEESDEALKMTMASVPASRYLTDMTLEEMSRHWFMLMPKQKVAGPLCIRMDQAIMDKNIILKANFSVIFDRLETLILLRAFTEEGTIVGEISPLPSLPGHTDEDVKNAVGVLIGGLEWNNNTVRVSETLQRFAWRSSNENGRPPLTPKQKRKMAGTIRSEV

[6] = test system: Streptococcus; assay: GAS UMAA2166 growth inhibition – luminescence, BacTiterGlo, counter-screen for streptokinase expression inhibitor project, dose response (AID 1915); type: functional, organism-based;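 note: potency for reduction of bacterial viability or growth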
[7] = NIH-3T3 fibroblast cytotoxicity, dose response, cytotoxicity control, cell-based, fluorescence, Alamar Blue, secondary assay (AID 2327); type: functional;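 note: NIH-3T3 mouse fibroblasts cultured with fluconazole at 8 µg/mL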
[8] = test system: Streptococcus sp. 'group A'; assay: Streptococcus pyogenes SK(-)GAS viability under kanamycin – luminescence, BacTiterGlo, confirmation, counter-screen for streptokinase expression inhibitor project, dose response (AID 1900); type: functional, organism-based
[9] = fluconazole-exposed Candida albicans growth modulators – fluorescence, retest, confirmation (AID 2467); type: functional, cell-based
[10] = target: T4, Streptokinase A (Streptococcus pyogenes serotype M1, UniProt P10520); assay: viability-normalized secreted streptokinase activity reduction – plasminogen activation absorbance, OD405, dose response (AID 1914); type: functional, Streptococcus pyogenes M1 GAS;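 note: secreted streptokinase activity via plasminogen activation per viability signal from cell pellet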
T4 sequence (P10520 whole entry): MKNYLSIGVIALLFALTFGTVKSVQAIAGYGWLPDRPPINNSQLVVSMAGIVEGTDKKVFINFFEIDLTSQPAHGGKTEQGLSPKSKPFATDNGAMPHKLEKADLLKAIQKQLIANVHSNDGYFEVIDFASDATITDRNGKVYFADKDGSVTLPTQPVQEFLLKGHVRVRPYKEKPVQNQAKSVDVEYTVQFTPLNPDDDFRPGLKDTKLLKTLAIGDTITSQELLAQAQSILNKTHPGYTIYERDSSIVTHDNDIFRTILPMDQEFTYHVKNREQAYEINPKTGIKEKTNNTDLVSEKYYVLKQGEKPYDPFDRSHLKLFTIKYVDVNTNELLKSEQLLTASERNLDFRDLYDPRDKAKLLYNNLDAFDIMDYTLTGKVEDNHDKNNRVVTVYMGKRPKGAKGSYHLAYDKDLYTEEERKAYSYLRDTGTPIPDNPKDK

[11] = target: T5, Protein skinhead-1 (Caenorhabditis elegans, UniProt P34707); type: functional
T5 sequence (P34707 whole entry): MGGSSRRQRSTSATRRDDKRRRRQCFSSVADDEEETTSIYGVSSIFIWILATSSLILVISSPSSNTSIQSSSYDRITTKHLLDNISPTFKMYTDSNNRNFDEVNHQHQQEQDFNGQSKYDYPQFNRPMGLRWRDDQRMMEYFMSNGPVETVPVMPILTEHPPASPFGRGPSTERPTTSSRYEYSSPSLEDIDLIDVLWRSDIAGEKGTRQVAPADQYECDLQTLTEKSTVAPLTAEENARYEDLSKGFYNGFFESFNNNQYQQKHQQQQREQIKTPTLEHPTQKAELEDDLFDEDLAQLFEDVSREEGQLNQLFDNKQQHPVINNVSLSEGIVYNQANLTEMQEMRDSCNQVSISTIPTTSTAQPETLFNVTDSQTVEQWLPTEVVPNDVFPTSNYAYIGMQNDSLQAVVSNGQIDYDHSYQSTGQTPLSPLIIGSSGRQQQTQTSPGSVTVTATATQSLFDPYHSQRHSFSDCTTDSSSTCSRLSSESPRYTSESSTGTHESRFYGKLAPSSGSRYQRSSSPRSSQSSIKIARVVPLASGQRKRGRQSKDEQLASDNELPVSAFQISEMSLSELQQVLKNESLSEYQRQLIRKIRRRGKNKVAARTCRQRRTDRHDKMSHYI

SMILES: COC(=O)c1cc(NCc2ccccc2F)ccc1N1CCOCC1
- IC50 [1]: 168 µM (active)

SMILES: COc1ccc(F)cc1S(=O)(=O)NCC(=O)NCc1cc(=O)n(C)c(=O)n1C
- EC50 [2]: > 53 µM (inactive)
- IC50 [3]: > 47.1 µM (inactive)

SMILES: O=C1NC2(CCCCCC2)N=C1c1ccc(Br)cc1
- IC50 [4]: > 20 µM (inactive)

SMILES: c1ccc(-c2ccc(SCc3cccnc3)nn2)nc1
- IC50 [5]: 5.07 µM (active)

SMILES: COc1cc(-c2nc3cnccn3c2Nc2ccc(C)cc2)ccc1O
- IC50 [1]: 29.3 µM (active)

SMILES: O=C(COc1ccccc1)N1CCN(C2CCCC2)CC1
- IC50 [1]: 127 µM (active)

SMILES: COc1cc(OC)c2c(c1C(CCN1CCOCC1)c1ccc(N(C)C)cc1)OC(=O)CC2c1ccc(N(C)C)cc1 (configuration not stated)
- IC50 [5]: 14.5 µM (active)

SMILES: N#CCSc1nc2sccc2c(=O)n1-c1ccccc1
- EC50 [2]: > 53 µM (inactive)
- IC50 [3]: > 47.1 µM (inactive)

SMILES: Cc1ccccc1CN1CCC(CNC(=O)C2CCCN(c3ncnc4c3nc3n4CCCCC3)C2)CC1 (configuration not stated)
- IC50 [4]: > 20 µM (inactive)

SMILES: COc1ccc(C(CCNCc2ccc(N(C)C)cc2)C(C)C)cc1 (configuration not stated)
- IC50 [5]: 39.1 µM (active)

SMILES: Cc1ncc(CO)c(/C=N/NC(=S)Nc2ccc(Cl)c(Cl)c2)c1O
- EC50 [6]: 91.4 µM (active)
- EC50 [7]: 45.4 µM (inconclusive)
- IC50 [4]: > 20 µM (inactive)
- EC50 [8]: 4.1 µM (active)
- EC50 [9]: > 38 µM (not active)
- EC50 [10]: > 150 µM (not active)

SMILES: CCCCCc1cc(=O)oc2c(C(CCN3CCCC3)c3cc(OC)c(OC)c(OC)c3)c(OC)cc(OC)c12 (configuration not stated)
- IC50 [4]: > 20 µM (inactive)

SMILES: CCCC(=O)NC(=S)Nc1cccc2c(O)cccc12
- IC50 [1]: 47.7 µM (active)

SMILES: COC(=O)C1=C(C)N(Cc2ccccc2)C(NCc2cc(OC)c(OC)c(OC)c2)=N[C@H]1c1ccc(Br)cc1
- IC50 [4]: > 20 µM (inactive)

SMILES: CCOc1ccc(N)cc1OC
- IC50 [1]: 42.9 µM (active)

SMILES: CCOC(=O)C1=C(c2ccccc2)O/C(=C(\C(=O)OC)C(F)(F)F)S1
- IC50 [4]: > 20 µM (inactive)

SMILES: C#CCOCCOCCOCCNc1nc(N2CCOCC2)nc(N2CCN(C(=O)CCCCCCCCCCNC(=O)[C@H](CO)n3cc(CCCCCN)nn3)CC2)n1
- IC50 [4]: > 20 µM (inactive)

SMILES: Nc1cccc2c1C(=O)c1ccc(Cl)cc1C2=O
- IC50 [5]: 24.6 µM (active)
- IC50 [11]: > 100 µM (inactive)

SMILES: Cc1cc(C)nc(SCc2nnc(SCc3ccc([N+](=O)[O-])cc3)n2Cc2ccco2)n1
- EC50 [2]: > 53 µM (inactive)
- IC50 [3]: > 47.1 µM (inactive)

SMILES: O=C(COc1cccc2c1CCN(Cc1ccc(Br)cc1)C2=O)NCc1ccco1
- EC50 [2]: > 53 µM (inactive)
- IC50 [3]: > 47.1 µM (inactive)

SMILES: CCOc1cccc(/C=N/NC(=S)NCCN2CCOCC2)c1O
- IC50 [5]: 16.5 µM (active)

SMILES: OCCN1CCN(Cc2ccc3ccccc3c2)CC1
- IC50 [1]: 95.6 µM (active)
